According to US10947188B2, “Small molecule ferroptosis inducers” (THE TRUSTEES OF COLUMBIA UNIVERSITY IN THE CITY OF NEW YORK, priority 2016, dated 2021):
Read-outs that look alike come from different tables or passages of the source. Where a SMILES comes first, the peptide text is derived from it. The star is where a group is joined. Cbz = O=C(OCc1ccccc1)*

System: HT-1080
Assay: Modulatory profiling: Alamar Blue viability, lethal compound cotreated with death modulator (EC50, AUC)
Assay type: cell-based
Parameters: AUC, modulator HT.3MA / AUC, modulator HT.ALLN / AUC HT.ATA / AUC HT.ActD / AUC HT.BHA / AUC HT.BHT / AUC HT.BocD / AUC HT.CHX / AUC HT.Co2+ / AUC HT.DPQ / AUC HT.EGTA / AUC HT.Lmim / AUC HT.NAD+ / AUC HT.Nec-1 / AUC HT.SP600125 / AUC HT.TLCK / AUC HT.U0126: unit not given beside the values
Settings: for AUC HT.ATA: HT-1080, modulator ATA; for AUC HT.ActD: HT-1080, modulator ActD; for AUC HT.BHA: HT-1080, modulator BHA; for AUC HT.BHT: HT-1080, modulator BHT; for AUC HT.BocD: HT-1080, modulator BocD; for AUC HT.CHX: HT-1080, modulator CHX; for AUC HT.Co2+: HT-1080, modulator Co2+; for AUC HT.CspA: HT-1080, modulator CspA; for AUC HT.DPQ: HT-1080, modulator DPQ; for AUC HT.Gd3+: HT-1080, modulator Gd3+; for AUC HT.LNAME: HT-1080, modulator LNAME; for AUC HT.Lmim: HT-1080, modulator Lmim; for AUC HT.NAD+: HT-1080, modulator NAD+; for AUC HT.NMMA: HT-1080, modulator NMMA; for AUC HT.Nec-1: HT-1080, modulator Nec-1; for AUC HT.Pepstatin: HT-1080, modulator Pepstatin; for AUC HT.SP600125: HT-1080, modulator SP600125; for AUC HT.TLCK: HT-1080, modulator TLCK; for AUC HT.U0126: HT-1080, modulator U0126; for HT.atoc (AUC) / HT.bCarotene (AUC) / HT.deferox (AUC) / HT.digoxin (AUC) / HT.trolox (AUC) / HT.zVAD (AUC): HT-1080; for HT.atoc (AUC): modulator atoc; for HT.bCarotene (AUC): modulator bCarotene; for HT.deferox (AUC): modulator deferox; for HT.digoxin (AUC): modulator digoxin; for HT.trolox (AUC): modulator trolox; for HT.zVAD (AUC): modulator zVAD; for AUC, modulator HT.3MA / AUC, modulator HT.ALLN: HT-1080 cells, modulatory profile value (AUC); for AUC, modulator HT.3MA: lethal compound cotreated with modulator 3MA; for AUC, modulator HT.ALLN: lethal compound cotreated with modulator ALLN

| SMILES | AUC HT.ATA | AUC HT.ActD | AUC HT.BHA | AUC HT.BHT | AUC HT.BocD | AUC HT.CHX | AUC HT.Co2+ | AUC HT.CspA | AUC HT.DPQ | AUC HT.Gd3+ | AUC HT.LNAME | AUC HT.Lmim | AUC HT.NAD+ | AUC HT.NMMA | HT.atoc (AUC) | HT.bCarotene (AUC) | HT.deferox (AUC) | HT.digoxin (AUC) | HT.trolox (AUC) | HT.zVAD (AUC) | other results |
| --- | --- | --- | --- | --- | --- | --- | --- | --- | --- | --- | --- | --- | --- | --- | --- | --- | --- | --- | --- | --- | --- |
| COc1ccc(N(C(=O)CCl)C(C(=O)NCCc2ccccc2)c2cccs2)cc1 (stereo not drawn) [DPI4] | −0.03622 | −0.006831 | 0.285 | 0.2486 | −0.01407 | −0.008699 | 0.1741 | 5.8801E−05 | 0.05528 | −0.02121 | 0.01547 | 0.3086 | 0.02441 | −0.0007723 | 0.3523 | −0.01264 | 0.4095 | −0.06343 | 0.3151 | −0.04451 | AUC HT.EGTA (HT-1080, modulator EGTA): 0.0361; AUC HT.Nec-1: 0.05135; AUC HT.Pepstatin: −0.003295; AUC HT.SP600125: −0.04284; AUC HT.TLCK: 0.1761; AUC HT.U0126: 0.3423; AUC, modulator HT.3MA: −0.001458; AUC, modulator HT.ALLN: −0.1648 |
| O=c1c(Cl)c(Cl)cnn1-c1ccc(Cl)c(C(F)(F)F)c1 [CIL25] | 0.06489 | −0.03585 | −0.01547 | −0.1041 | 0.05183 | −0.01604 | −0.06128 | 0.01073 | 0.02629 | 0.01713 | 0.02663 | 0.01684 | −0.03051 | −0.006639 | 0.04405 | 0.009082 | 0.07763 | −0.007149 | −0.02562 | 0.03342 | AUC HT.EGTA (HT-1080, modulator EGTA): 0.01624; AUC, modulator HT.3MA: 0.01605; AUC, modulator HT.ALLN: −0.0257 |
| CC1CC2=C(CC1CNCCCN(C)C)C(C)(C)CCC2 (stereo not drawn) [CIL26] | 0.04192 | −0.002488 | −0.1441 | −0.1215 | 0.008992 | −0.02052 | −0.02744 | −0.04225 | 0.02987 | −0.005334 | 0.001215 | −0.004 | −0.01406 | −0.009692 | 0.04649 | −0.03349 | −0.1033 | −0.03641 | −0.0327 | −0.01226 | AUC HT.EGTA (HT-1080, modulator EGTA): 0.009998; AUC, modulator HT.3MA: 0.0321; AUC, modulator HT.ALLN: 0.001592 |
| CC(C)=CCCC1=CCC(CNCCCN(C)C)C(C)C1 (stereo not drawn) [CIL28] | 0.06113 | −0.01352 | −0.1362 | −0.1108 | 0.01462 | 0.0328 | −0.03292 | −0.01858 | 0.04404 | −0.02583 | −0.0045 | 0.001311 | 0.007089 | −0.009763 | 0.1068 | −0.03341 | −0.04312 | −0.007104 | −0.03025 | −0.009003 | AUC HT.EGTA (HT-1080, modulator EGTA): 0.005868; AUC, modulator HT.3MA: 0.0937; AUC, modulator HT.ALLN: 0.04719 |
| Cc1cccc(-n2ncc(Cl)c(Cl)c2=O)c1 [CIL22] | 0.05908 | −0.02402 | 0.001925 | −0.05238 | 0.008628 | 0.01938 | −0.03478 | −0.03611 | −0.00934 | −0.004534 | 0.04608 | 0.01659 | 0.01014 | 0.01444 | 0.04912 | −0.01174 | 0.06507 | 0.05675 | −0.004921 | 0.02835 | AUC HT.EGTA: −0.01254; AUC, modulator HT.3MA: −0.01606; AUC, modulator HT.ALLN: 0.02849 |
| CN(C)CC(O)Cn1c2ccc(Cl)cc2c2cc(Cl)ccc21 (stereo not drawn) [CIL5] | 0.0005893 | −0.00753 | −0.08502 | −0.09917 | 0.01524 | 0.09726 | 0.08698 | −0.02159 | 0.009641 | −0.0257 | 0.02263 | 0.003574 | 0.03421 | −0.003405 | 0.03603 | −0.01403 | −0.01025 | 0.005534 | 0.01247 | −0.01378 | AUC HT.EGTA (HT-1080, modulator EGTA): −0.009215; AUC HT.Nec-1: 0.003351; AUC HT.Pepstatin: 0.01965; AUC HT.SP600125: −0.02149; AUC HT.TLCK: −0.004057; AUC HT.U0126: −0.02944; AUC, modulator HT.3MA: 0.0132; AUC, modulator HT.ALLN: 0.07446 |
| COc1cc([C@@H]2c3cc4c(cc3[C@H](O)[C@H]3COC(=O)[C@H]23)OCO4)cc(OC)c1OC [Podophyllotoxin] | 0.1206 | −0.0009195 | 0.02739 | 0.0008586 | 0.0984 | 0.07197 | 0.1102 | −0.07592 | 0.005964 | 0.00916 | −0.004926 | 0.1098 | 0.1318 | 0.000472 | −0.02023 | 0.0009225 | 0.3104 | 0.1098 | 0.0103 | 0.09402 | AUC HT.EGTA (HT-1080, modulator EGTA): 0.01145; AUC HT.Nec-1: −0.0001825; AUC HT.Pepstatin: −0.0005129; AUC HT.SP600125: −0.02768; AUC HT.TLCK: 0.06978; AUC HT.U0126: 0.1354; AUC, modulator HT.3MA: 0.001351; AUC, modulator HT.ALLN: 0.1572 |
| CC(C)[C@@H]1NC(=O)[C@H](C)OC(=O)[C@@H](C(C)C)NC(=O)[C@@H](C(C)C)OC(=O)[C@H](C(C)C)NC(=O)[C@H](C)OC(=O)[C@@H](C(C)C)NC(=O)[C@@H](C(C)C)OC(=O)[C@H](C(C)C)NC(=O)[C@H](C)OC(=O)[C@@H](C(C)C)NC(=O)[C@@H](C(C)C)OC1=O [Vatinomycin] | 0.04039 | 0.0779 | −0.01263 | −0.05233 | 0.01496 | 0.1024 | −0.06183 | −0.03789 | 0.1702 | −0.004524 | −0.03843 | 0.1163 | 0.07833 | −0.002681 | 0.2292 | −0.01526 | 0.004145 | −0.1615 | 0.04463 | −0.05753 | AUC HT.EGTA (HT-1080, modulator EGTA): −0.04483; AUC HT.Nec-1: 0.08394; AUC HT.Pepstatin: 0.0197; AUC HT.SP600125: −0.161; AUC HT.TLCK: 0.02961; AUC HT.U0126: 0.005482; AUC, modulator HT.3MA: −0.1653; AUC, modulator HT.ALLN: 0.04228 |
| CC(C)C[C@@H](C=O)NC(=O)[C@H](CC(C)C)NC(=O)[C@H](CC(C)C)NC(=O)OCc1ccccc1 [MG132, reference compound] (Cbz-Leu-Leu-Leu-aldehyde) | 0.005768 | −0.06417 | −0.1238 | −0.1271 | 0.002051 | 0.04854 | −0.05705 | −0.3221 | −0.02406 | −0.011 | 5.1006E−05 | 0.001338 | 0.03798 | 0.01064 | 0.04884 | 7.0861E−05 | −0.1162 | 0.08352 | −0.01616 | −0.0992 | AUC HT.EGTA: 0.007775; AUC HT.Nec-1: −0.09728; AUC HT.Pepstatin: −0.02733; AUC HT.SP600125: −0.03431; AUC HT.TLCK: 0.01546; AUC HT.U0126: −0.071; AUC, modulator HT.3MA: −0.03392; AUC, modulator HT.ALLN: −0.2149 |
| [N-]=[N+]=[N-].[Na+] [NaN3] | 0.03107 | 0.1197 | −0.04061 | −0.1432 | 0.008996 | 0.04722 | 0.03941 | −0.04777 | −0.00797 | −0.004604 | −0.01351 | −0.07613 | 0.06683 | 0.002822 | −0.031 | 0.00681 | 0.07882 | 0.01948 | −0.001376 | 0.01031 | AUC HT.EGTA (HT-1080, modulator EGTA): −0.002548; AUC HT.Nec-1: −0.02968; AUC HT.Pepstatin: −0.004337; AUC HT.SP600125: −0.004079; AUC HT.TLCK: 0.0226; AUC HT.U0126: 0.02567; AUC, modulator HT.3MA: −0.05719; AUC, modulator HT.ALLN: 0.06335 |
| COc1ccc(Nc2ccc3c(c2)=NC2(CCCCC2)[N+]=3[O-])cc1 [CIL9] | −0.003144 | −0.064 | −0.04477 | −0.1803 | −0.02376 | 0.07227 | 0.01754 | −0.03079 | −0.003317 | −0.04358 | 0.02124 | −0.05469 | 0.02617 | −0.03733 | 0.05157 | −0.006502 | 0.05678 | −0.01984 | −0.03599 | −0.00166 | AUC HT.EGTA (HT-1080, modulator EGTA): −0.006848; AUC HT.Nec-1: 0.02133; AUC HT.Pepstatin: −0.002188; AUC HT.SP600125: 0.01016; AUC HT.TLCK: 0.005514; AUC HT.U0126: 0.03915; AUC, modulator HT.3MA: 0.04492; AUC, modulator HT.ALLN: −0.02077 |
